Experimental data reported in publication PMC9027131, “Dual PI3K/Akt Inhibitors Bearing Coumarin-Thiazolidine Pharmacophores as Potential Apoptosis Inducers in MCF-7 Cells” (Pharmaceuticals, 2022).
Read-outs that look alike come from different tables or passages of the source.

Legend:
MCF-7 cells [1] = experiment: MTT cytotoxicity assay in MCF-7 cells; assay type: cell-based, human; details: means ± sd, n = 3
Description: The in vitro anticancer activity of the designed coumarin-thiosemicarbazones and coumarin-thiazolidine-4-one hybrids against MCF-7 cells was tested using the MTT assay, and 5-fluorouracil (5-FU) was used as the reference drug. The tested compounds were used in different concentrations, and cell survival was determined after incubation for 48 h as reported. The cytotoxic activity is represented in Table 1 as IC50 (µM) values.
(§1) MCF-7 breast cancer cell line (ATCC® HTB-22™) plus non-tumorigenic epithelial cell line (MCF 10, ATCC® CRL-10317™) were supplied from VACSERA (Cairo, Egypt) and cultured in Dulbecco’s Modified Eagle Medium (Invitrogen-Life Technologies, Carlsbad, CA, USA) with 1% antibiotic solution (streptomycin–penicillin) plus 10% fetal bovine serum (Hyclone) in a 5% (v/v) humidified CO2 incubator at 37 °C.
Firstly, cells were kept in a humidified atmosphere (37 °C, 24 h), and then incubated with serial concentrations of the tested compounds. After 48 h, the medium was aspirated, and then cells were incubated with 5% MTT solution (M-5655; Sigma Aldrich, St. Louis, MO USA) (200 µL/well, 2 h), allowing the dye to metabolize into the colored insoluble formazan complex that was then dissolved in the appropriate solubilization solution (M-8910) (200 µL/well), for 30 min with gentle mixing at room temperature. The UV absorbance was measured using a microplate reader (570 nm), and cell viability was determined with respect to untreated control cells. […] The values were means ± sd; n = 3.

MCF-7 cells [2] = experiment: Cell cycle analysis by flow cytometry (propidium iodide); assay type: cell-based, human; details: MCF-7, treated at IC50, 48 h
Description: VIIb-treated cells were subjected to cell cycle phase distribution analysis as well as apoptosis rates determination by flow cytometric analysis in MCF-7 cells, as reported.
Control and VIIb-treated (IC50 µM, 48 h) MCF-7 cells were harvested and then subjected to cell cycle analysis by flow cytometry.
Cell cycle analysis and apoptosis rates following VIIb treatment were investigated using a Propidium Iodide Flow Cytometry Kit (ab139418; Abcam, Cambridge, UK) and Annexin V-FITC apoptosis kit (Catalog: K101-25; BioVision Research Products, San Francisco, CA, USA), respectively, following the manufacturer’s instructions as stated by a previous study.

PI3K δ = details: cited from earlier work
PI3K α = details: cited from earlier work
PI3K β = details: Figure 1, pan PI3K inhibitor; cited from earlier work
[3] = system: MCF 10 non-tumorigenic epithelial cell line; experiment: MTT assay in non-cancerous epithelial cells (MCF 10); assay type: cell-based; details: for IC50: Homo sapiens, MCF10, MTT assay, non-cancerous epithelial cells, means ± sd, n = 3; for Selectivity Index MCF-10/MCF-7: ratio of IC50 MCF-10 to IC50 MCF-7
Description: as §1
Firstly, cells were kept in a humidified atmosphere (37 °C, 24 h), and then incubated with serial concentrations of the tested compounds. After 48 h, the medium was aspirated, and then cells were incubated with 5% MTT solution (M-5655; Sigma Aldrich, St. Louis, MO USA) (200 µL/well, 2 h), allowing the dye to metabolize into the colored insoluble formazan complex that was then dissolved in the appropriate solubilization solution (M-8910) (200 µL/well), for 30 min with gentle mixing at room temperature. The UV absorbance was measured using a microplate reader (570 nm), and cell viability was determined with respect to untreated control cells.

Akt-1 = molecular target: T1, Akt-1 (Homo sapiens, UniProt P31749); experiment: Akt Kinase Activity assay kit; assay type: biochemical; details: means ± sd, n = 3; read-out: IC50 (µM) Akt-1 Isoform
T1 construct: purchased Abcam ab139436
T1 sequence (P31749 whole entry, species assumed, canonical isoform): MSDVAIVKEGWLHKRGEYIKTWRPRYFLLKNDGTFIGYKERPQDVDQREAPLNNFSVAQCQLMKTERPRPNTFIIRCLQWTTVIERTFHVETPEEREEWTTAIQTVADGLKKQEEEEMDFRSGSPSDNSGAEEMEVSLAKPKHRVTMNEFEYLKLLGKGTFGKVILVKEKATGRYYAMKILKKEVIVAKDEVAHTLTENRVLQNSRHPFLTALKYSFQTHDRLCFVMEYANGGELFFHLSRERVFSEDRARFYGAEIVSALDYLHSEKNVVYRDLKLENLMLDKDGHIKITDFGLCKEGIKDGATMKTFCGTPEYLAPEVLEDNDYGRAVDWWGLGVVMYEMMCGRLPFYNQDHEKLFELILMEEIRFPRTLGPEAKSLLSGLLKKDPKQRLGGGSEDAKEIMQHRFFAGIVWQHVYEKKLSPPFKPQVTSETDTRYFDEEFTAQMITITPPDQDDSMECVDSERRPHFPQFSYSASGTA
Text: Accumulating evidence highlighted that PI3K signaling pathway upregulation is highly implicated in breast cancer development and disease progression as well as resistance to hormones and cytotoxic therapy. Therefore, it is essential to elucidate the effect of the novel compound, VIIb, on the PI3K/Akt signaling pathway by using in vitro PI3K class 1A enzyme inhibition assay conducted on PI3K-α and PI3K-γ isoforms as well as an Akt-1 enzyme inhibition assay. […] Furthermore, targeting the PI3K-γ isoform in breast cancer could contribute to enhancing the anti-tumor immunity.
The in vitro inhibition of PI3K and Akt kinase activities by VIIb was assessed using a PI3Kα (p110α/p85) assay kit (Catalog #79781; BPS Bioscience, Inc, San Diego, CA, USA), PI3Kγ (p110γ/PIK3R5) assay kit (Catalog #79803; BPS Bioscience, Inc, San Diego, CA, USA), and Akt Kinase Activity assay kit (ab139436; Abcam, Cambridge, UK) following the manufacturer’s instructions as described previously. The results were expressed as IC50 values using dose–response curves and linear regression equations. LY294002 compound was taken as the reference compound. The values were means ± sd; n = 3.

Akt = details: Figure 1, reported Akt inhibitor; cited from earlier work

## CCOc1ccc2c(C)cc(=O)oc2c1C(C)=NN=C1SCC(=O)N1C (mixture of isomers) [VIIIa, (Z/E)-2-{[1-(7-Ethoxy-4-methylcoumarin-8-yl)-ethylidene]-hydrazono}-3-methyl-thiazolidin-4-one]
MCF-7 cells [1]; 48 h
  IC50: 20.3 ± 1.06 µM

## CCOc1ccc2c(C)cc(=O)oc2c1C(C)=NN=C1SCC(=O)N1CC (mixture of isomers) [VIIIb, (Z/E)-2-{[1-(7-Ethoxy-4-methylcoumarin-8-yl)-ethylidene]-hydrazono}-3-ethyl-thiazolidin-4-one]
MCF-7 cells [2]; control 1.55
  DNA Content % Pre G1: 35.25%
MCF-7 cells [2]; control 9.71
  DNA Content % G2/M: 5.59%
MCF-7 cells [2]; control 36.58
  DNA Content % S: 46.02%
MCF-7 cells [2]; control 53.71
  DNA Content % G0/G1: 48.39%
MCF-7 cells [1]; 48 h
  IC50: 57.3 ± 2.99 µM

## C=CCN1C(=O)CSC1=NN=C(C)c1c(OCC)ccc2c(C)cc(=O)oc12 (mixture of isomers) [VIIIc, (Z/E)-3-Allyl-2-{[1-(7-ethoxy-4-methylcoumarin-8-yl)-ethylidene]-hydrazono}-thiazolidin-4-one]
MCF-7 cells [1]; 48 h
  IC50: 4.95 ± 0.26 µM

## CCOc1ccc2c(C)cc(=O)oc2c1C(C)=NN=C1SCC(=O)N1Cc1ccccc1 (mixture of isomers) [VIIId, (Z/E)-3-Benzyl-2-{[1-(7-ethoxy-4-methylcoumarin-8-yl)-ethylidene]-hydrazono}-thiazolidin-4-one]
MCF-7 cells [1]; 48 h
  IC50: 79.9 ± 4.18 µM

## CCOc1ccc2c(C)cc(=O)oc2c1C(C)=NN=C1SCC(=O)N1C(=O)c1ccccc1 (mixture of isomers) [VIIIe, (Z/E)-3-Benzoyl-2-{[1-(7-ethoxy-4-methylcoumarin-8-yl)-ethylidene]-hydrazono}-thiazolidin-4-one]
MCF-7 cells [1]; 48 h
  IC50: 26.4 ± 1.38 µM

## COc1ccc(-c2nc(N/N=C/c3c[nH]c4ccccc34)nc(N3CCOCC3)c2C#N)cc1 [Compound 1]
PI3K δ; Figure 1, pan PI3K inhibitor
  IC50: 0.64 µM
PI3K α; Figure 1, pan PI3K inhibitor, read-out: IC50 (α)
  IC50: 0.96 µM
PI3K β
  IC50: 0.94 µM

## O=c1[nH]cc(F)c(=O)[nH]1 [Compound 5-FU, 5-fluorouracil, reference compound]
[3]
  IC50: 36.2 ± 1.89 µM
  Selectivity Index MCF-10/MCF-7: 1.30
MCF-7 cells [1]; Homo sapiens, MCF7, 48 h
  IC50: 27.8 ± 1.41 µM

## O=c1cc(N2CCOCC2)oc2c(-c3ccccc3)cccc12 [LY294002, reference compound]
Akt-1
  IC50: 3.53 ± 0.18 µM

## NC1(c2ccc(-c3nc4ccn5c(=O)[nH]nc5c4cc3-c3ccccc3)cc2)CCC1 [MK-2206]
Akt
  IC50: 0.008 µM

## CCOc1ccc2c(C)cc(=O)oc2c1/C(C)=N\NC(=S)NC [VIa, (Z/E)-1(1-(7-ethoxy-4-methylcoumarin)ethylidene)-4-methyl-thiosemicarbazone]
other
  melting point: 202 to 204 °C
MCF-7 cells [1]; Homo sapiens, MCF7, 48 h
  IC50: 11.1 ± 0.58 µM

## CCNC(=S)N/N=C(/C)c1c(OCC)ccc2c(C)cc(=O)oc12 [VIb, (Z/E)-1(1-(7-ethoxy-4-methylcoumarin)ethylidene)-4-ethyl-thiosemicarbazone]
other
  melting point: 183 °C
MCF-7 cells [1]; Homo sapiens, MCF7, 48 h
  IC50: 38.7 ± 2.09 µM

## C=CCNC(=S)N/N=C(/C)c1c(OCC)ccc2c(C)cc(=O)oc12 [VIc, (Z/E)-1(1-(7-ethoxy-4-methylcoumarin)ethylidene)-4-allyl-thiosemicarbazone]
other
  melting point: 100 to 102 °C
MCF-7 cells [1]; Homo sapiens, MCF7, 48 h
  IC50: 2.72 ± 0.13 µM

## CCOc1ccc2c(C)cc(=O)oc2c1/C(C)=N\NC(=S)NCc1ccccc1 [VId, (Z/E)-1(1-(7-ethoxy-4-methylcoumarin)ethylidene)-4-benzyl-thiosemicarbazone]
other
  melting point: 140 to 143 °C
MCF-7 cells [1]; Homo sapiens, MCF7, 48 h
  IC50: 2.61 ± 0.14 µM

## CCOc1ccc2c(C)cc(=O)oc2c1/C(C)=N\NC(=S)NC(=O)c1ccccc1 [VIe, (Z/E)-1(1-(7-ethoxy-4-methylcoumarin)ethylidene)-4-benzoyl-thiosemicarbazone]
other
  melting point: 220 to 223 °C
MCF-7 cells [1]; Homo sapiens, MCF7, 48 h
  IC50: 43.1 ± 2.25 µM

## CCOc1ccc2c(C)cc(=O)oc2c1/C(C)=N\NC(=S)Nc1ccc(OC)cc1 [VIf]
[3]
  IC50: 20.1 ± 1.05 µM
  Selectivity Index MCF-10/MCF-7: 16.61
MCF-7 cells [1]; Homo sapiens, MCF7, 48 h
  IC50: 1.21 ± 0.06 µM

## C/C(=N/NC(=S)NCc1ccccc1)c1c(O)ccc2c(C)cc(=O)oc12 [Va]
MCF-7 cells [1]; Homo sapiens, MCF7, 48 h
  IC50: 5.13 ± 0.28 µM

## C/C(=N/NC(=S)NC(=O)c1ccccc1)c1c(O)ccc2c(C)cc(=O)oc12 [Vb]
MCF-7 cells [1]; Homo sapiens, MCF7, 48 h
  IC50: 47.3 ± 2.47 µM
